{
  "source": "patent US8383806B2",
  "about": "“Method of reversing carboplatin resistance by inhibition of HGFIN” (University of Medicine and Dentistry of New Jersey, priority 2000, dated 2013)",
  "molecules": {"B1": {"name": "G-CSF: granulocyte colony-stimulation factor (protein, UniProt P09919 31-207, looked up)", "Granulocyte …": "TPLGPASSLPQSFLLKCLEQVRKIQGDGAALQEKLVSECATYKLCHPEELVLLGHSLGIPWAPLSSCPSQALQLAGCLSQLHSGLFLYQGLLQALEGISPELGPTLDTLQLDVADFATTIWQQMEELGMAPALQPTQGAMPAFASAFQRRAGGVLVASHLQSFLEVSYRVLRHLAQP"}, "B2": {"name": "M-CSF: macrophage colony-stimulation factor (protein, UniProt P09603 33-554, looked up)", "Macrophage colony-stimulating …": "EEVSEYCSHMIGSGHLQSLQRLIDSQMETSCQITFEFVDQEQLKDPVCYLKKAFLLVQDIMEDTMRFRDNTPNAIAIVQLQELSLRLKSCFTKDYEEHDKACVRTFYETPLQLLEKVKNVFNETKNLLDKDWNIFSKNCNNSFAECSSQDVVTKPDCNCLYPKAIPSSDPASVSPHQPLAPSMAPVAGLTWEDSEGTEGSSLLPGEQPLHTVDPGSAKQRPPRSTCQSFEPPETPVVKDSTIGGSPQPRPSVGAFNPGMEDILDSAMGTNWVPEEASGEASEIPVPQGTELSPSRPGGGSMQTEPARPSNFLSASSPLPASAKGQQPADVTGTALPRVGPVRPTGQDWNHTPQKTDHPSALLRDPPEPGSPRISSLRPQGLSNPSTLSAQPQLSRSHSSGSVLPLGELEGRRSTRDRRSPAEPEGGPASEGAARPLPRFNSVPLTDTGHERQSEGSFSPQLQESVFHLLVPSVILVLLAVGGLLFYRWRRRSHQEPQRADSPLEQPEGSPLTQDDRQVELPV"}, "B3": {"name": "IL-11: cytokine (protein, UniProt P20809 22-199, looked up)", "Interleukin-11": "PGPPPGPPRVSPDPRAELDSTVLLTRSLLADTRQLAAQLRDKFPADGDHNLDSLPTLAMSAGALGALQLPGVLTRLRADLLSYLRHVQWLRRAGGSSLKTLEPELGTLQARLDRLLRRLQLLMSRLALPQPPPDPPAPPLAPPSSAWGGIRAAHAILGGLHLTLDWAVRGLLLLKTRL"}},
  "key": {"[1]": {"tested_on": "HGFIN mRNA in bone marrow stroma", "assay": "Northern analysis of HGFIN mRNA in stimulated bone marrow stroma", "assay_type": "cell-based, human", "details": "bone marrow stroma vs unstimulated", "protocol": "(§1) Cell Stimulation. Peripheral blood mononuclear cells (PBMC) were resuspended in RPMI 1640 containing 2% FCS at 10^6/ml. Cell suspension, 10 ml, was stimulated with 1 μg/ml of LPS. bone marrow stroma was stimulated in sera-free α-MEM (Sigma) with the following: 10 μg/ml SCF, 5 ng/ml IL-11, 5 U/ml […], 5 ng/ml […], 25 ng/ml NGF and […]. Dose-response curves with slot blots for HGFIN mRNA determined the optimal concentration of each stimulus. During stromal cell stimulation, culture media were supplemented with insulin-transferring-selenium-A (Life Technologies, Grand Island, N.Y.). In both types of cells, controls included parallel cultures in similar media. At 8 hours and 16 hours, total RNA was extracted from each experimental point and control and then analyzed by northern analyses for HGFIN mRNA.\n(§2) Northern Analysis. Northern analysis for steady state HGFIN mRNA was performed as described (Rameshwar, et al. (1997) J. Immunol. 158:3417-3424). Total RNA was extracted from the experimental cells and 10 μg from each was separated in 1.2% agarose. RNA was transferred to nylon membranes (S & S NYTRAN, Keene, N.H.) and then hybridized with [α-^32P]-dATP-labeled cDNA probes specific for HGFIN or Id2. Membranes were stripped and then reprobed with cDNA for 18S rRNA. Probes were randomly labeled with [α-^32P]-dATP, 3000 Ci/mM, (Dupont/NEN, Boston, Mass.) using the PRIME-IT II random primer kit (Stratagene). The membrane was placed in a PHOSPHOIMAGER cassette (Molecular Dynamics, Sunnyvale, Calif.) and then scanned at different times beginning at 6 hours to 24 hours on a PHOSPHOIMAGER (Molecular Dynamics). Negative results were not attributed to the lack of total RNA on the membrane since each was hybridized with a cDNA probe for 18S rRNA.\nThe mesenchymal/stromal cells of the bone marrow produce most of the necessary soluble regulators that modulate bone marrow organ functions (Muller-Sieburg & Deryugina (1995) supra). Since HGFIN expression was altered in activated PBMC, the next set of studies examined the role of HGFIN in activated bone marrow stroma. The following stimulators were used: cytokines, SCF, IL-11, IL-1(α, β) and IL-6 and a neurotrophic factor, NGF. […] Densitometric scans were normalized with 18S rRNA and the fold (mean±SD) increase over unstimulated stroma was determined. […] However, together, the levels of HGFIN mRNA in the cytokine-stimulated cultures were much less than in stroma stimulated with NGF."}, "[2]": {"tested_on": "HGFIN mRNA in PBMC", "assay": "Northern analysis of HGFIN mRNA in stimulated PBMC", "assay_type": "cell-based, human", "details": "1 μg/ml LPS", "protocol": "as §1\nNorthern Analysis. Northern analysis for steady state HGFIN mRNA was performed as described (Rameshwar, et al. (1997) J. Immunol. 158:3417-3424). Total RNA was extracted from the experimental cells and 10 μg from each was separated in 1.2% agarose. […]\nAs differentiated immune cells express HGFIN, studies were performed to determining if HGFIN was also expressed when these differentiated cells were activated. […] Consistent with HGFIN expression in PBMC, HGFIN mRNA was detected in the unstimulated PBMC."}, "[3]": {"tested_on": "Oct4 breast cancer cells", "assay": "Carboplatin treatment of tumors from Oct4 breast cancer cells in mice", "assay_type": "in vivo, athymic BALB/c mice", "protocol": "As discussed above, female athymic BALB/c mice (4 weeks) were obtained from Harlan Laboratories (Somerville, N.J.) and housed in a laminar flow hood at an AAALAC-accredited facility. The use of mice was approved by the Institutional Animal Care and Use Committee, New Jersey Medical School (Newark, N.J.).\nMice were inoculated with Oct4 cells where HGFIN expression was knocked down with siRNA. The cells were injected in a total volume of 0.2 mL subcutaneously in the dorsal flanks. Tumors were monitored daily and measured in two dimensions with a caliper and volume was calculated using the formula V=πr^2h, where r=radius and h=height. Animal were injected with carboplatin (50 mg/kg) on day 0 and day 3 of the test period. Tumors were palpated and tumor volume was measured every other day for two weeks (i.e., days 0, 2, 4, 6, 8, 10, 12 and 14)."}, "[4]": {"tested_on": "HGFIN mRNA in HL-60", "assay": "Northern analysis of HGFIN mRNA in differentiated HL-60", "assay_type": "cell-based", "details": "HL-60 differentiated to monocytes (TPA) or granulocytes (DMSO)", "protocol": "(§3) Cell Differentiation. Cell differentiation was performed with a myelomonocytic cell line, HL-60, or bone marrow mononuclear cells (BMNC). HL-60 cells were chemically differentiated with TPA and DMSO for monocytes and granulocytes respectively (Miura, et al. (2000) supra; Hegde, et al. (1999) Blood 94:1578-1589). BMNC were isolated from bone marrow aspirate of healthy donors using FICOLL HYPAQUE density gradient.\nas §2, with “The membrane was placed in a PHOSPHOIMAGER cassette (Molecular Dynamics, Sunnyvale, Calif.) and then scanned at different times beginning at 6 hours to 24 hours on a PHOSPHOIMAGER (Molecular Dynamics). Negative results were not attributed to the lack of total RNA on the membrane since each was hybridized with a cDNA probe for 18S rRNA.” left out\nHGFIN mRNA was studied in differentiated and undifferentiated HL-60 cells to determine if the expression of this gene was limited to normal bone marrow progenitors. […] Similar to normal progenitors, HGFIN mRNA was detected in differentiated HL-60. […]"}, "[5]": {"tested_on": "Id2 in BMNC", "assay": "Id2 protein in differentiated BMNC", "assay_type": "cell-based, human", "protocol": "Further, BMNC cells were differentiated with M-CSF or G-CSF (500 U/ml for each) to monocytes and granulocytes, respectively. Undifferentiated cells were cultured in parallel with only media. Culture media were replaced at two-day intervals until cytochemical staining determined that >90% of the cells were differentiated. At this time, cell differentiation was terminated and the cells analyzed by northern analyses for Id2 and HGFIN mRNA, and by immunoblot for Id2 protein. For HL-60 cultures, cytochemical staining was performed after three days with 100-200 cells. Beginning at day 5, cells from cultures with BMNC were stained and daily thereafter. […]\nWestern Blots. […] Extracts were centrifuged at 10,000 g for 10 minutes and then determined for total protein concentration using the BIO-RAD Protein Assay kit (BIO-RAD Laboratories, Hercules, Calif.). Extracts (15 Vig) were analyzed by western blot for Id2 protein as described (Rameshwar, et al. (2000) J. Immunol. 165:2271-2277). […] Alk Phos activity was detected with BCIP/NBT substrate System (Kirkeguard & Perry Laboratories, Gaithersburg, Md.). […]\nNorthern blots were performed in four experiments, each with a different donor. […] However in undifferentiated BMNC (cultured in media alone), Id2 mRNA was detected in each of the four bone marrow donors. […]"}, "[6]": {"tested_on": "HGFIN mRNA in BMNC", "assay": "Northern analysis of HGFIN mRNA in BMNC cultured with M-CSF or G-CSF", "assay_type": "cell-based, human", "protocol": "as §3\nFurther, BMNC cells were differentiated with M-CSF or G-CSF (500 U/ml for each) to monocytes and granulocytes, respectively. Undifferentiated cells were cultured in parallel with only media. Culture media were replaced at two-day intervals until cytochemical staining determined that >90% of the cells were differentiated. At this time, cell differentiation was terminated and the cells analyzed by northern analyses for Id2 and HGFIN mRNA, and by immunoblot for Id2 protein. For HL-60 cultures, cytochemical staining was performed after three days with 100-200 cells. Beginning at day 5, cells from cultures with BMNC were stained and daily thereafter. Neutrophil and monocyte staining were performed with kits specific for […], respectively.\nas §2\nSince the HGFIN cDNA was isolated from bone marrow cell subsets, bone marrow and PB mononuclear cells were screened using northern analyses to study the expression of HGFIN. […] After the cells were >90% differentiated to monocytes and neutrophils, cells were analyzed for the expression of HGFIN mRNA by northern analyses.\nTo verify that the expression of HGFIN was not due to activation by the two cytokines, northern analyses were performed with BMNC cultured with M-CSF or G-CSF and then analyzed for HGFIN mRNA before the cells were differentiated."}, "[7]": {"details": "BMNC >90% differentiated to monocytes or neutrophils"}, "[8]": {"details": "BMNC cultured with cytokine, before the cells were differentiated"}},
  "data": [
    {"molecule": "SCF: Stem cell factor, cytokine", "values": [
      {"measurement": "HGFIN mRNA induction", "setting": "[1]", "value": "induced"}
    ]},
    {"molecule": "lipopolysaccharide [LPS]", "values": [
      {"measurement": "steady state HGFIN mRNA", "setting": "[2]; 8 hours", "value": "no difference"},
      {"measurement": "steady state HGFIN mRNA", "setting": "[2]; 16 hours", "value": "down-regulated"}
    ]},
    {"molecule": "N.N.O=C([O-])C1(C(=O)[O-])CCC1.[Pt+2]", "note": "[carboplatin]", "values": [
      {"measurement": "tumor cell volume vs before carboplatin treatment", "setting": "[3]; 50 mg/kg, two weeks after second injection", "value": "statistically significant decreases"},
      {"measurement": "sensitivity of tumors to carboplatin", "setting": "[3]; HGFIN knocked down with siRNA, 50 mg/kg day 0 and day 3, two weeks after second injection", "value": "more sensitive"}
    ]},
    {"molecule": "C[S+](C)[O-]", "note": "[DMSO, dimethylsulfoxide]", "values": [
      {"measurement": "HGFIN mRNA", "setting": "[4]", "value": "detected"}
    ]},
    {"molecule": "12-0-tetradecanoylphorbol diester [TPA]", "values": [
      {"measurement": "HGFIN mRNA", "setting": "[4]", "value": "detected"}
    ]},
    {"molecule": "IL-6: cytokine", "values": [
      {"measurement": "HGFIN mRNA induction", "setting": "[1]", "value": "induced"}
    ]},
    {"molecule": "NGF: nerve growth factor, a neurotrophic factor", "values": [
      {"measurement": "HGFIN mRNA induction", "setting": "[1]", "value": "induced"}
    ]},
    {"molecule": "B1", "values": [
      {"measurement": "band for Id2 protein", "setting": "[5]", "value": "very light to undetectable"},
      {"measurement": "HGFIN mRNA", "setting": "[6]; [7]", "value": "detectable"},
      {"measurement": "HGFIN mRNA", "setting": "[6]; [8]", "value": "no detectable HGFIN mRNA"}
    ]},
    {"molecule": "B2", "values": [
      {"measurement": "band for Id2 protein", "setting": "[5]", "value": "very light to undetectable"},
      {"measurement": "HGFIN mRNA", "setting": "[6]; [7]", "value": "detectable"},
      {"measurement": "HGFIN mRNA", "setting": "[6]; [8]", "value": "no detectable HGFIN mRNA"}
    ]},
    {"molecule": "B3", "values": [
      {"measurement": "HGFIN mRNA induction", "setting": "[1]", "value": "induced"}
    ]}
  ]
}
